# From patent US8143397B2 (Medichem S.A., priority 2006, dated 2012)
# Experiment: Particle size distribution (Malvern laser particle size analyser)
# Assay type: physicochemical
# Conditions: dispersed in 0.1% Tween 20 in DI water, sonicated 2 minutes
# Experimental: vii. Particle Size Distribution
# Particle size measurement was obtained using a Malvern particle size analyser equipped with a 2 milliwatt Helium/Neon laser and a Fourier Transform lens system. The sample was run using the […]. The sample unit was a MS1-Small Volume Sample Dispersion Unit stirred cell. The dispersant was DI water. The sample particle size distribution was assumed to follow a normal distribution.
# Analysis model: polydisperse.
# Setup presentation: standard wet (30HD)
# 1 ml of Tween 20 was diluted to 1000 ml with water (solution 0.1% of Tween 20 in DI water). Approximately 250 mg of sample was dispersed in 20 ml of the solution 0.1% of Tween 20 in DI water. This sample was sonicated for 2 minutes and delivered dropwise to the previously filled and background corrected measuring cell until the desired obscuration was reached.
# This dispersion (the dispersion in the stirring measuring cell) was measured after stabilization of the obscuration.
Compound,Mean Diameter,"Particle Size Distribution D(v, 0.1)","Particle Size Distribution D(v, 0.5)","Particle Size Distribution D(v, 0.9)"
"C[C@@H](c1ncncc1F)[C@](O)(Cn1cncn1)c1ccc(F)cc1F [Example 2, Voriconazole]",–,36.9 μm,102.4 μm,220.0 μm
"C[C@@H](c1ncncc1F)[C@](O)(Cn1cncn1)c1ccc(F)cc1F [Example 19, Voriconazole]",23.3 μm,5.7 μm,20.8 μm,43.4 μm
"C[C@@H](c1ncncc1F)[C@](O)(Cn1cncn1)c1ccc(F)cc1F [Example 21, Voriconazole]",18.3 μm,5.3 μm,16.7 μm,34.1 μm
"C[C@@H](c1ncncc1F)[C@](O)(Cn1cncn1)c1ccc(F)cc1F [Example 24, Voriconazole]",–,35.9 μm,147.6 μm,350.0 μm

# The remaining lines, values ahead:
Mean Diameter,"Particle Size Distribution D(v, 0.1)","Particle Size Distribution D(v, 0.5)","Particle Size Distribution D(v, 0.9)",Compound
21.0 μm,5.2 μm,19.1 μm,39.1 μm,"C[C@@H](c1ncncc1F)[C@](O)(Cn1cncn1)c1ccc(F)cc1F [Example 22, Voriconazole]"
19.8 μm,5.2 μm,17.9 μm,37.5 μm,"C[C@@H](c1ncncc1F)[C@](O)(Cn1cncn1)c1ccc(F)cc1F [Example 23, Voriconazole]"
18.7 μm,4.5 μm,16.9 μm,37.4 μm,"C[C@@H](c1ncncc1F)[C@](O)(Cn1cncn1)c1ccc(F)cc1F [Example 18, Voriconazole]"
17.5 μm,4.2 μm,14.9 μm,34.1 μm,"C[C@@H](c1ncncc1F)[C@](O)(Cn1cncn1)c1ccc(F)cc1F [Example 20, Voriconazole]"
19.4 μm,5.4 μm,17.5 μm,37.2 μm,"C[C@@H](c1ncncc1F)[C@](O)(Cn1cncn1)c1ccc(F)cc1F [Example 25, Voriconazole]"

# Experiment: Tapped density
# Assay type: physicochemical
# Conditions: after milling, sieving and blending
row,Tapped Density,Compound
1,0.82 g/mL,"C[C@@H](c1ncncc1F)[C@](O)(Cn1cncn1)c1ccc(F)cc1F [Example 24, Voriconazole]"
